The EC50 is the concentration at which the effect is half-maximal.

One series is described as follows: Inhibition of P-gp (unknown origin) expressed in MES-SA/DX5 cells assessed as increase in reversal of resistance to paclitaxel-induced cytotoxicity by measuring reduction in paclitaxel EC50 at 50 nM incubated for 72 hrs in presence of paclitaxel by SRB assay (Rvb = 294.6 nM). Background: Sulforhodamine B stains cellular protein and so reports cell mass.
Regarding `COc1cc2c(cc1OC)CN(CCc1ccc(-n3nnc(-c4cc(OC)c(OC)cc4NC(=O)c4cnc5ccccc5c4)n3)cc1)CC2`, the EC50 worked out at 15 nM.

As to `COc1cc2c(cc1OC)CN(CCc1ccc(-n3nnc(-c4cc(OC)c(OC)cc4NC(=O)c4ccc5ccccc5n4)n3)cc1)CC2`, the EC50 stood at 110 nM.

As for `COc1cc2c(cc1OC)CN(CCc1ccc(-n3nnc(-c4cc(OC)c(OC)cc4NC(=O)c4cc5ccccc5cn4)n3)cc1)CC2`, the EC50 is 84 nM.

Take `COc1cc2c(cc1OC)CN(CCc1ccc(-n3nnc(-c4cc(OC)c(OC)cc4NC(=O)c4cccc5cccnc45)n3)cc1)CC2`: the EC50 turned out to be 69 nM.

Take `COc1cc2c(cc1OC)CN(CCc1ccc(-n3nnc(-c4cc(OC)c(OC)cc4NC(=O)c4nccc5ccccc45)n3)cc1)CC2`: the EC50 was found to be 162 nM.

On to `COc1cc2c(cc1OC)CN(CCc1ccc(-n3nnc(-c4cc(OC)c(OC)cc4NC(=O)c4cncc5ccccc45)n3)cc1)CC2`, for which the EC50 amounted to 89 nM.

In the case of `COc1cc2c(cc1OC)CN(CCc1ccc(-n3nnc(-c4cc(OC)c(OC)cc4NC(=O)c4cccnc4)n3)cc1)CC2`, the EC50 is 98 nM.

Take `COc1cc2c(cc1OC)CN(CCc1ccc(-n3nnc(-c4cc(OC)c(OC)cc4NC(=O)c4ccc5ccccc5c4)n3)cc1)CC2`: the EC50 came to 113 nM.

As to `COc1cc2c(cc1OC)CN(CCc1ccc(-n3nnc(-c4cc(OC)c(OC)cc4NC(=O)c4cnccn4)n3)cc1)CC2`, the EC50 turned out to be 98 nM.

Take `COc1cc2c(cc1OC)CN(CCc1ccc(-n3nnc(-c4cc(OC)c(OC)cc4NC(=O)c4ccccc4)n3)cc1)CC2`: the EC50 was 87 nM.

Turning to `COc1cc2c(cc1OC)CN(CCc1ccc(-n3nnc(-c4cc(OC)c(OC)cc4NC(=O)c4ccc(F)c(F)c4)n3)cc1)CC2`, the EC50 was 80 nM.

As to `COc1cc2c(cc1OC)CN(CCc1ccc(-n3nnc(-c4cc(OC)c(OC)cc4NC(=O)c4ccsc4)n3)cc1)CC2`, the EC50 amounted to 66 nM.

`COc1cc2c(cc1OC)CN(CCc1ccc(-n3nnc(-c4cc(OC)c(OC)cc4NC(=O)c4ccoc4)n3)cc1)CC2`: the EC50 was found to be 84 nM.

Turning to `COc1cc2c(cc1OC)CN(CCc1ccc(-n3nnc(-c4cc(OC)c(OC)cc4NC(=O)c4coc5ccccc5c4=O)n3)cc1)CC2`, the EC50 stood at 140 nM.

For `COc1cc2c(cc1OC)CN(CCc1ccc(-n3nnc(-c4cc(OC)c(OC)cc4NC(=O)c4cc(=O)c5c(OC)cccc5o4)n3)cc1)CC2`, the EC50 came out at 5.9 nM.

In the case of `COc1cc2c(cc1OC)CN(CCc1ccc(-n3nnc(-c4cc(OC)c(OC)cc4NC(=O)c4cc(=O)c5cc(F)ccc5o4)n3)cc1)CC2`, the EC50 was found to be 7.5 nM.

Regarding `COc1cc2c(cc1OC)CN(CCc1ccc(-n3nnc(-c4cc(OC)c(OC)cc4NC(=O)c4cc(=O)c5cc(C)ccc5o4)n3)cc1)CC2`, the EC50 turned out to be 4 nM.

On to `COc1cc2c(cc1OC)CN(CCc1ccc(-n3nnc(-c4cc(OC)c(OC)cc4NC(=O)c4cc(=O)c5ccccc5o4)n3)cc1)CC2` [Encequidar], for which the EC50 was determined as 4.9 nM.

A short description of a further series: Inhibition of P-gp (unknown origin) expressed in MES-SA/DX5 cells assessed as cell growth inhibition after 3 days in presence of 200 nM paclitaxel by MTT assay. On the technique in general: Formazan colour is commonly taken as a measure of viable cells.
As for `COc1cc2c(cc1OC)CN(CCc1ccc(NC(=O)c3cc(OC)c(OC)cc3NC(=O)c3cnc4ccccc4c3)cc1)CC2`, the EC50 is 16 nM.

Turning to `COc1cc2c(cc1OC)CN(CCc1ccc(-n3nnc(-c4cc(OC)c(OC)cc4NC(=O)c4cnc5ccccc5c4)n3)cc1)CC2`, the EC50 was found to be 75 nM.

For the compound `COc1cc2c(cc1OC)CN(CCc1ccc(-n3nnc(-c4cc(OC)c(OC)cc4NC(=O)c4cc(=O)c5ccccc5o4)n3)cc1)CC2` [Encequidar], the EC50 worked out at 13 nM.

The nature of a further series: Inhibition of P-gp (unknown origin) expressed in MCF7 cells assessed as increase in reversal of resistance to paclitaxel-induced cytotoxicity by measuring reduction in paclitaxel EC50 at 50 nM incubated for 72 hrs in presence of paclitaxel by SRB assay (Rvb = 11.5 nM).
Consider `COc1cc2c(cc1OC)CN(CCc1ccc(-n3nnc(-c4cc(OC)c(OC)cc4NC(=O)c4cnc5ccccc5c4)n3)cc1)CC2`, for which the EC50 amounted to 7.9 nM.

As to `COc1cc2c(cc1OC)CN(CCc1ccc(-n3nnc(-c4cc(OC)c(OC)cc4NC(=O)c4ccc5ccccc5n4)n3)cc1)CC2`, the EC50 worked out at 12 nM.

Take `COc1cc2c(cc1OC)CN(CCc1ccc(-n3nnc(-c4cc(OC)c(OC)cc4NC(=O)c4cc5ccccc5cn4)n3)cc1)CC2`: the EC50 was 8.5 nM.

As for `COc1cc2c(cc1OC)CN(CCc1ccc(-n3nnc(-c4cc(OC)c(OC)cc4NC(=O)c4cccc5cccnc45)n3)cc1)CC2`, the EC50 was 5.4 nM.

Take `COc1cc2c(cc1OC)CN(CCc1ccc(-n3nnc(-c4cc(OC)c(OC)cc4NC(=O)c4nccc5ccccc45)n3)cc1)CC2`: the EC50 is 7.6 nM.

Take `COc1cc2c(cc1OC)CN(CCc1ccc(-n3nnc(-c4cc(OC)c(OC)cc4NC(=O)c4cncc5ccccc45)n3)cc1)CC2`: the EC50 was found to be 9.1 nM.

Regarding `COc1cc2c(cc1OC)CN(CCc1ccc(-n3nnc(-c4cc(OC)c(OC)cc4NC(=O)c4cccnc4)n3)cc1)CC2`, the EC50 stood at 9.1 nM.

As for `COc1cc2c(cc1OC)CN(CCc1ccc(-n3nnc(-c4cc(OC)c(OC)cc4NC(=O)c4ccc5ccccc5c4)n3)cc1)CC2`, the EC50 stood at 10 nM.

Consider `COc1cc2c(cc1OC)CN(CCc1ccc(-n3nnc(-c4cc(OC)c(OC)cc4NC(=O)c4cnccn4)n3)cc1)CC2`, for which the EC50 is 9.1 nM.

Consider `COc1cc2c(cc1OC)CN(CCc1ccc(-n3nnc(-c4cc(OC)c(OC)cc4NC(=O)c4ccccc4)n3)cc1)CC2`, for which the EC50 is 7.7 nM.

As to `COc1cc2c(cc1OC)CN(CCc1ccc(-n3nnc(-c4cc(OC)c(OC)cc4NC(=O)c4ccc(F)c(F)c4)n3)cc1)CC2`, the EC50 was found to be 10 nM.

Take `COc1cc2c(cc1OC)CN(CCc1ccc(-n3nnc(-c4cc(OC)c(OC)cc4NC(=O)c4ccsc4)n3)cc1)CC2`: the EC50 was 6.4 nM.

Take `COc1cc2c(cc1OC)CN(CCc1ccc(-n3nnc(-c4cc(OC)c(OC)cc4NC(=O)c4ccoc4)n3)cc1)CC2`: the EC50 came to 10 nM.

With `COc1cc2c(cc1OC)CN(CCc1ccc(-n3nnc(-c4cc(OC)c(OC)cc4NC(=O)c4coc5ccccc5c4=O)n3)cc1)CC2`, the EC50 is 9 nM.

On to `COc1cc2c(cc1OC)CN(CCc1ccc(-n3nnc(-c4cc(OC)c(OC)cc4NC(=O)c4cc(=O)c5c(OC)cccc5o4)n3)cc1)CC2`, for which the EC50 is 7.4 nM.

As to `COc1cc2c(cc1OC)CN(CCc1ccc(-n3nnc(-c4cc(OC)c(OC)cc4NC(=O)c4cc(=O)c5cc(F)ccc5o4)n3)cc1)CC2`, the EC50 is 8.1 nM.

For `COc1cc2c(cc1OC)CN(CCc1ccc(-n3nnc(-c4cc(OC)c(OC)cc4NC(=O)c4cc(=O)c5cc(C)ccc5o4)n3)cc1)CC2`, the EC50 was determined as 6.5 nM.

In the case of `COc1cc2c(cc1OC)CN(CCc1ccc(-n3nnc(-c4cc(OC)c(OC)cc4NC(=O)c4cc(=O)c5ccccc5o4)n3)cc1)CC2` [Encequidar], the EC50 came to 7.9 nM.

These data come from BindingDB's records for doi:10.1021/acs.jmedchem.0c01826 (Athenex, 2021).
